# Measurements published in PubChem BioAssay (NCI).
#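 Exposure lasted 48 hours, with cells grown in 96-well plates and compounds tested at five concentrations. Abbreviation: GI50, concentration required for 50% inhibition of growth. TGI: total growth inhibition.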
# Columns and labels:
# Assay in all cases: DTP human tumour cell line panel, 48 h
# A498 renal = tested on: A498 renal
# SF-539 CNS = tested on: SF-539 CNS
# CCRF-CEM leukemia = tested on: CCRF-CEM leukemia
# NCI-H226 lung = tested on: NCI-H226 lung
# MOLT-4 leukemia = tested on: MOLT-4 leukemia
# ACHN renal = tested on: ACHN renal
# SK-MEL-5 melanoma = tested on: SK-MEL-5 melanoma
# SN12C renal = tested on: SN12C renal
# M14 melanoma = tested on: M14 melanoma
# RPMI-8226 leukemia = tested on: RPMI-8226 leukemia
# HOP-92 NSCLC = tested on: HOP-92 NSCLC
# HCT-116 colon = tested on: HCT-116 colon
# SK-MEL-2 melanoma = tested on: SK-MEL-2 melanoma
# EKVX NSCLC = tested on: EKVX NSCLC
# OVCAR-4 ovarian = tested on: OVCAR-4 ovarian
# HT29 colon = tested on: HT29 colon
# U251 CNS = tested on: U251 CNS
# SF-268 CNS = tested on: SF-268 CNS
# SNB-75 CNS = tested on: SNB-75 CNS
# OVCAR-5 ovarian = tested on: OVCAR-5 ovarian
# NCI-H522 lung = tested on: NCI-H522 lung
# OVCAR-8 ovarian = tested on: OVCAR-8 ovarian
# HOP-62 NSCLC = tested on: HOP-62 NSCLC
# MALME-3M melanoma = tested on: MALME-3M melanoma
# MDA-MB-468 breast = tested on: MDA-MB-468 breast
# CAKI-1 renal = tested on: CAKI-1 renal
# HS 578T breast = tested on: HS 578T breast
# SW-620 colon = tested on: SW-620 colon
# UO-31 renal = tested on: UO-31 renal
# HCT-15 colon = tested on: HCT-15 colon
# LOX IMVI melanoma = tested on: LOX IMVI melanoma
# UACC-257 melanoma = tested on: UACC-257 melanoma
# SF-295 CNS = tested on: SF-295 CNS
# DU-145 prostate = tested on: DU-145 prostate
# NCI-H23 lung = tested on: NCI-H23 lung
# T-47D breast = tested on: T-47D breast
# RXF 393 renal = tested on: RXF 393 renal
# SK-OV-3 ovarian = tested on: SK-OV-3 ovarian
# SR leukemia = tested on: SR leukemia
# BT-549 breast = tested on: BT-549 breast
# MDA-MB-435 = tested on: MDA-MB-435
# SNB-19 CNS = tested on: SNB-19 CNS
# HL-60(TB) leukemia = tested on: HL-60(TB) leukemia
# KM12 colon = tested on: KM12 colon
# MDA-MB-231 breast = tested on: MDA-MB-231 breast
# PC-3 prostate = tested on: PC-3 prostate
# A549 NSCLC = tested on: A549 NSCLC
# NCI-H460 lung = tested on: NCI-H460 lung
# HCC-2998 colon = tested on: HCC-2998 colon
# OVCAR-3 ovarian = tested on: OVCAR-3 ovarian
# K-562 leukemia = tested on: K-562 leukemia
# IGROV1 ovarian = tested on: IGROV1 ovarian
# UACC-62 melanoma = tested on: UACC-62 melanoma
# 786-0 renal = tested on: 786-0 renal
# MCF7 breast = tested on: MCF7 breast
# TK-10 renal = tested on: TK-10 renal
# SK-MEL-28 melanoma = tested on: SK-MEL-28 melanoma
# COLO 205 colon = tested on: COLO 205 colon
smiles,measurement,setting,value
COc1ccc([C@H]2C(C(=O)c3ccc(Cl)cc3)C3(N[C@@H]2c2ccccc2)C(=O)Nc2ccc(Br)cc23)cc1 (stereo partly specified),GI50,A498 renal,10.5 µM
same,TGI,A498 renal,24.8 µM
same,GI50,SF-539 CNS,9.47 µM
same,TGI,SF-539 CNS,19.4 µM
same,GI50,CCRF-CEM leukemia,14.4 µM
same,TGI,CCRF-CEM leukemia,40.5 µM
same,GI50,NCI-H226 lung,8.47 µM
same,TGI,NCI-H226 lung,16.4 µM
same,GI50,MOLT-4 leukemia,14.8 µM
same,TGI,MOLT-4 leukemia,47.2 µM
same,GI50,ACHN renal,13.4 µM
same,TGI,ACHN renal,41.6 µM
same,GI50,SK-MEL-5 melanoma,8.65 µM
same,TGI,SK-MEL-5 melanoma,16.5 µM
same,GI50,SN12C renal,8.53 µM
same,TGI,SN12C renal,16 µM
same,GI50,M14 melanoma,9.18 µM
same,TGI,M14 melanoma,19.1 µM
same,GI50,RPMI-8226 leukemia,14.3 µM
same,TGI,RPMI-8226 leukemia,41 µM
same,GI50,HOP-92 NSCLC,8.27 µM
same,TGI,HOP-92 NSCLC,19.7 µM
same,GI50,HCT-116 colon,9.7 µM
same,TGI,HCT-116 colon,18.5 µM
same,GI50,SK-MEL-2 melanoma,8.37 µM
same,TGI,SK-MEL-2 melanoma,16 µM
same,GI50,EKVX NSCLC,12.4 µM
same,TGI,EKVX NSCLC,42.6 µM
same,GI50,OVCAR-4 ovarian,13 µM
same,TGI,OVCAR-4 ovarian,42.4 µM
same,GI50,HT29 colon,9.03 µM
same,TGI,HT29 colon,17.1 µM
same,GI50,U251 CNS,9.18 µM
same,TGI,U251 CNS,18 µM
same,GI50,SF-268 CNS,14.4 µM
same,TGI,SF-268 CNS,49.7 µM
same,GI50,SNB-75 CNS,8.73 µM
same,TGI,SNB-75 CNS,35.4 µM
same,GI50,OVCAR-5 ovarian,9.8 µM
same,TGI,OVCAR-5 ovarian,19.1 µM
same,GI50,NCI-H522 lung,8.97 µM
same,TGI,NCI-H522 lung,20.8 µM
same,GI50,OVCAR-8 ovarian,9.68 µM
same,TGI,OVCAR-8 ovarian,20.4 µM
same,GI50,HOP-62 NSCLC,8.59 µM
same,TGI,HOP-62 NSCLC,16.5 µM
same,GI50,MALME-3M melanoma,7.69 µM
same,TGI,MALME-3M melanoma,15.1 µM
same,GI50,MDA-MB-468 breast,10.2 µM
same,TGI,MDA-MB-468 breast,27 µM
same,GI50,CAKI-1 renal,13.1 µM
same,TGI,CAKI-1 renal,42.4 µM
same,GI50,HS 578T breast,9.96 µM
same,TGI,HS 578T breast,26.6 µM
same,GI50,SW-620 colon,13.9 µM
same,TGI,SW-620 colon,44.8 µM
same,GI50,UO-31 renal,10.7 µM
same,TGI,UO-31 renal,29.3 µM
same,GI50,HCT-15 colon,9.91 µM
same,TGI,HCT-15 colon,20.3 µM
same,GI50,LOX IMVI melanoma,7.86 µM
same,TGI,LOX IMVI melanoma,15.9 µM
same,GI50,UACC-257 melanoma,10.5 µM
same,TGI,UACC-257 melanoma,27.9 µM
same,GI50,SF-295 CNS,9.65 µM
same,TGI,SF-295 CNS,20.2 µM
same,GI50,DU-145 prostate,13.5 µM
same,TGI,DU-145 prostate,36.7 µM
same,GI50,NCI-H23 lung,10.2 µM
same,TGI,NCI-H23 lung,20.8 µM
same,GI50,T-47D breast,11.5 µM
same,TGI,T-47D breast,33.4 µM
same,GI50,RXF 393 renal,7.29 µM
same,TGI,RXF 393 renal,16.2 µM
same,GI50,SK-OV-3 ovarian,12.3 µM
same,TGI,SK-OV-3 ovarian,36.8 µM
same,GI50,SR leukemia,12.8 µM
same,TGI,SR leukemia,35.8 µM
same,GI50,BT-549 breast,8.66 µM
same,TGI,BT-549 breast,16.6 µM
same,GI50,MDA-MB-435,10.2 µM
same,TGI,MDA-MB-435,20.4 µM
same,GI50,SNB-19 CNS,15.1 µM
same,TGI,SNB-19 CNS,> 53.3 µM
same,GI50,HL-60(TB) leukemia,11.3 µM
same,TGI,HL-60(TB) leukemia,29.8 µM
same,GI50,KM12 colon,11.5 µM
same,TGI,KM12 colon,25.5 µM
same,GI50,MDA-MB-231 breast,8.88 µM
same,TGI,MDA-MB-231 breast,16.5 µM
same,GI50,PC-3 prostate,12.2 µM
same,TGI,PC-3 prostate,31.5 µM
same,GI50,A549 NSCLC,11.9 µM
same,TGI,A549 NSCLC,34.2 µM
same,GI50,NCI-H460 lung,10.1 µM
same,TGI,NCI-H460 lung,20.9 µM
same,GI50,HCC-2998 colon,8.82 µM
same,TGI,HCC-2998 colon,17.9 µM
same,GI50,OVCAR-3 ovarian,10.5 µM
same,TGI,OVCAR-3 ovarian,23.3 µM
same,GI50,K-562 leukemia,15.8 µM
same,TGI,K-562 leukemia,> 53.3 µM
same,GI50,IGROV1 ovarian,11 µM
same,TGI,IGROV1 ovarian,25.9 µM
same,GI50,UACC-62 melanoma,8.75 µM
same,TGI,UACC-62 melanoma,16.7 µM
same,GI50,786-0 renal,12.4 µM
same,TGI,786-0 renal,32.3 µM
same,GI50,MCF7 breast,11.5 µM
same,TGI,MCF7 breast,34.9 µM
same,GI50,TK-10 renal,10.8 µM
same,TGI,TK-10 renal,28.7 µM
same,GI50,SK-MEL-28 melanoma,8.83 µM
same,TGI,SK-MEL-28 melanoma,16.8 µM
same,GI50,COLO 205 colon,8.35 µM
same,TGI,COLO 205 colon,16 µM
